The record followed here is article PMC10518255, “A first-in-class pan-lysyl oxidase inhibitor impairs stromal remodeling and enhances gemcitabine response and survival in pancreatic cancer” (Nature Cancer, 2023).

Values joined by “and” are separate entries in the source; they are usually repeats but may differ in a detail not shown here. Equal entries are not always repeated.

One assay concerns CD31. Description: Immunohistochemistry of end-point KPC tumors: tumor vasculature. In kind it is in vivo, mouse. The following applies: for Quantification of tumour vasculature (CD31 positive staining): Extended Data 6E, KPC tumours at endpoint, individual FOV. As to the method:
All tissues or matrices, including patient TMAs, were fixed in 10% buffered formalin and embedded in paraffin. The 4-μm sections of samples were deparaffinized with xylene and rehydrated in graded ethanol washes. For immunohistochemistry, Bond Dewax Solution (AR9222) was used. Antigen retrieval was performed using Bond RX H2(30) protocol: HIER 30 min ER1 (citrate pH 6) OR ER2 (EDTA pH 9) at 100 °C. Slides were quenched in BOND Polymer Refine Detection (Leica Biosystems DS9800). […] Slides were digitized on an Aperio slide scanner and representative areas per tumor acquired and analyzed by researchers blinded to the conditions of the experiment.
Extended Data Fig. 6 PXS-5505 in combination with gemcitabine in a KPC model. a. Quantification of proliferating cells (Ki67 positive nuclear staining) in KPC tumors at end point, treated as indicated. 5 fields of view (500 μm × 500 μm) per mouse and 10 mice per cohort were scored. […] Quantification of percent coverage of αSMA positive staining in KPC tumors at end point, treated as indicated. 3 fields of view (1000 μm × 1000 μm) per mouse and 10 mice per cohort were scored. […] Quantification of percent coverage of PDGFR-ß positive staining in KPC tumors at end point, treated as indicated. 3 fields of view (1000 μm × 1000 μm) per mouse and 10 mice per cohort were scored. […] Quantification of pMLC2 positive staining in stromal regions of KPC tumors at end point, treated as indicated. 3 fields of view (500 μm × 500 μm) per mouse and 10 mice per cohort were scored. […] Quantification of tumor vasculature (CD31 positive staining) in KPC tumors at end point, treated as indicated. 3 fields of view (1000 μm × 1000 μm) per mouse and 10 mice per cohort were scored. […] Quantification of STAT3 activation (pSTAT3 positive nuclear staining) in KPC tumors at end point, treated as indicated. 3 fields of view (1000 μm × 1000 μm) per mouse and 5 mice per cohort were scored. […] Scale bars = 100 μm. g Quantification of macrophage infiltration (F4/80 positive staining) in KPC tumors at end point, treated as indicated. […]

A further assay has as its system TKCC10 human PDX tumors. Description: TKCC10 human model survival study (Extended Data Fig. 5k). In kind it is in vivo, mouse. The method, then: Subcutaneous PDX studies were performed by implanting early passage PDX pieces (~4 mm^3) or TKCC10 CCs (1.5 × 10^6 cells per mouse in 100 μl PBS/Matrigel 1:1) into female (PDX) or male (TKCC10) 8-week-old immunocompromised nude Balb/c-Fox1nuAusb mice subcutaneously on the left flank. For the duration of the study, mice were kept in conventional caging with environmental enrichment, access to standard chow, water ad libitum and 12-h light–dark cycle at ambient temperature and humidity. […] Tumor size was monitored every second day by calipers. Tumor volume was calculated using the formula (length × width^2)/2. […]
Extended Data Fig. 5 PXS-5505 in combination with gemcitabine in vivo. a. […] Signal is defined as the enzyme activity in the aorta, while noise is measured in the presence of a high concentration (300 µM) BAPN to abolish any lysyl oxidase family activity. […] FITC-dextran (molecular weight: 10 kDa) signal quantification from KPC tumor end point from each treatment group (vehicle n = 3 biologically independent animals, PXS-5505 n = 5 biologically independent animals, Gem n = 5 biologically independent animals, PXS-5505 + Gem n = 5 biologically independent animals). […] P-values determined by Welchs t-test. […] Quantification of red birefringent (mature) collagen fibers from human PDXs at end point after 3 cycles of treatment, treated as indicated. […]

As for `Nc1ccn([C@@H]2O[C@H](CO)[C@@H](O)C2(F)F)c(=O)n1` [Gem, gemcitabine], in the assay with CD31, the “Quantification of tumour vasculature (CD31 positive staining)” value is 0.7299 and 0.7671 and 1.094 and 0.1238 and 0.9491 and 1.4885 and 2.0289 and 0.3988 and 1.306 and 1.1528 and 0.8514 and 0.5685 and 1.3159 and 1.5073 and 0.7452 and 2.699 and 3.9605 and 1.2028 and 1.6599 and 0.7292 and 1.2066 and 0.7182 and 1.9396 and 0.8792 and 0.4356 and 0.528 and 0.6666 and 0.9682 and 1.0035 and 1.0817. Further, the CD31 positivity result in the assay with CD31 (KPC tumors at end point) is “moderately reduce CD31 positivity”. Besides, the “median survival (time under treatment after tumor reached 50 mm^3)” value in the assay on TKCC10 human PDX tumors was 29 days.
As to `Cl.Cl.NC/C=C(\F)CS(=O)(=O)c1cccc2cccnc12.O` [PXS-5505, (Z)-3-fluoro-4-(quinolin-8-ylsulfonyl)but-2-en-1-amine dihydrochloride monohydrate], the “Quantification of tumour vasculature (CD31 positive staining)” value in the assay with CD31 was 1.4669 and 1.052 and 0.7167 and 1.5204 and 1.7208 and 1.2357 and 2.5692 and 2.5978 and 2.6637 and 1.5089 and 2.7227 and 2.2335 and 3.0895 and 2.1825 and 1.7906 and 0.381 and 0.3483 and 0.8882 and 1.0908 and 1.998 and 0.3729 and 1.0662 and 0.7486 and 0.544 and 1.3597 and 1.732 and 1.5892 and 0.9619 and 1.2706 and 1.8307. In addition, the “median survival (time under treatment after tumor reached 50 mm^3)” value in the assay on TKCC10 human PDX tumors was determined as 16 days.
